Data: patent US11919871B1, “3-(3-chlorophenyl)-5-((2-isopropyl-5- methylphenoxy)methyl)-1,2,4-oxadiazole as an anti-cancer and antimicrobial compound” (KING FAISAL UNIVERSITY, priority 2023, dated 2024)

Tests used:
[1] = system: human osteosarcoma cells (MG-63); assay: Cytotoxicity by SRB assay; format: cell-based; settings: MG-63 cells, 0.01 μM to 100 μM for 72 h
Excerpt: (§1) The anticancer activity of the described synthesized compounds against highly aggressive androgen-independent metastatic human prostate cancer cells (PC3) and osteosarcoma (MG-63) cells. The human prostate cancer cells (PC3) and human osteosarcoma cells (MG-63) were obtained from Nawah Scientific Inc. (Mokatam, Cairo, Egypt) and cultured in DMEM (Dulbecco's modified eagle's medium), Gibco, USA, supplemented with fetal bovine serum (FBS) at a concentration of 10% and 100 U/mL of penicillin and streptomycin (PS). The Cells were incubated at 37° C. in a humidified environment that contained 5% CO2.
(§2) Cells were seeded in 96-well plates as aliquots of 100 μL cell suspension and incubated in a complete media for 24 h. afterward, cells were treated with 3-(3-chlorophenyl)-5-((2-isopropyl-5-methylphenoxy)methyl)-1,2,4-oxadiazole at diverse concentrations ranging from 0.01 μM to 100 μM for 72 h. Then, cells were fixed at 4° C. for one hour with 150 μL of 10% trichloroacetic acid (TCA). […] Then, 150 μL of Tris pH 10.5 (10 mM) was added, and the absorbance was measured at 540 nm using a BMG LABTECH®-FLUOstar Omega microplate reader (Ortenberg, Germany). Half maximal inhibitory concentrations (IC50) values were calculated for each experiment using GraphPad Prism 6 software. […]
(§3) The inhibition was calculated using the following equation: Inhibition %=100−Average Viability

[2] = system: human prostate cancer cells (PC3); assay: Cytotoxicity by SRB assay; format: cell-based; settings: 0.01 μM to 100 μM for 72 h
Excerpt: as §1, §2, §3

Aspergillus flavus = assay: Agar plate disc-diffusion, antifungal inhibition zone; format: cell-based; settings: 72 h for fungi
Method: (§4) The agar plate disc-diffusion method was applied. […] The discs were then placed onto the surface of agar plates (nutrient agar for bacteria and Sabouraud's dextrose agar for fungi) seeded with the test organism. Each plate contained 15 mL of the agar medium, previously seeded with 0.2 mL of the broth culture of each organism pregrown for 18 hours. The plates were incubated at 37° C. for 48 h, and 72 h for fungi. The inhibition zones were measured in mm. Discs impregnated with DMSO were used as a control, and its inhibition zone was subtracted from the tested compound actual inhibition zone.

Bacillus cereus = assay: Agar plate disc-diffusion, antibacterial inhibition zone; format: cell-based; settings: 37° C., 48 h
Method: as §4

Escherichia coli = assay: as above; format: cell-based; settings: 37° C., 48 h
Method: as §4

Pseudomonas aeruginosa = assay: as above; format: cell-based; settings: 37° C., 48 h
Method: as §4

Staphylococcus aureus = assay: as above; format: cell-based; settings: 37° C., 48 h
Method: as §4

[3] = system: Chrysosporium keratinophilum; assay: Agar plate disc-diffusion, antifungal inhibition zone; format: cell-based; settings: 72 h for fungi
Method: (§5) The agar plate disc-diffusion method was applied. Sterilized filter papers (6 mm in diameter) were wetted with 10 μL of a solution of 3-(3-chlorophenyl)-5-((2-isopropyl-5-methylphenoxy)methyl)-1,2,4-oxadiazole (3) to be tested, containing 10 mg/mL in DMSO, and the discs were allowed to air dry. The discs were then placed onto the surface of agar plates (nutrient agar for bacteria and Sabouraud's dextrose agar for fungi) seeded with the test organism. Each plate contained 15 mL of the agar medium, previously seeded with 0.2 mL of the broth culture of each organism pregrown for 18 hours. The plates were incubated at 37° C. for 48 h, and 72 h for fungi. The inhibition zones were measured in mm. Discs impregnated with DMSO were used as a control, and its inhibition zone was subtracted from the tested compound actual inhibition zone.

different microbes = assay: Antimicrobial activity, overall statement (agar plate disc-diffusion); format: cell-based; settings: against different microbes (bacteria and fungi of Tables 1 and 2)
Method: as §5

[4] = A = concentration of comp. = 10,000 μL
[5] = B = concentration of comp. = 30,000 μL
[6] = C = concentration of comp. = 50,000 μL

SMILES	inhibition zone (Aspergillus flavus; [4]) [mm]	inhibition zone (Aspergillus flavus; [5]) [mm]	inhibition zone (Aspergillus flavus; [6]) [mm]	inhibition zone (Bacillus cereus; [4]) [mm]	inhibition zone (Bacillus cereus; [5]) [mm]	inhibition zone (Bacillus cereus; [6]) [mm]	inhibition zone (Escherichia coli; [4]) [mm]	inhibition zone (Escherichia coli; [5]) [mm]	inhibition zone (Escherichia coli; [6]) [mm]	inhibition zone (Pseudomonas aeruginosa; [4]) [mm]	inhibition zone (Pseudomonas aeruginosa; [5]) [mm]	inhibition zone (Pseudomonas aeruginosa; [6]) [mm]	inhibition zone (Staphylococcus aureus; [4]) [mm]	inhibition zone (Staphylococcus aureus; [5]) [mm]	inhibition zone (Staphylococcus aureus; [6]) [mm]	inhibition zone [3, 4] [mm]	inhibition zone [3, 5] [mm]	inhibition zone [3, 6] [mm]	further results
Cc1ccc(C(C)C)c(OCc2nc(-c3cccc(Cl)c3)no2)c1 [3-(3-chlorophenyl)-5-((2-isopropyl-5-methylphenoxy)methyl)-1,2,4-oxadiazole]																			antiproliferative activities [1]: excellent antiproliferative activities; antiproliferative activities [2]: excellent antiproliferative activities
Cc1ccc(C(C)C)c(OCc2nc(-c3cccc(Cl)c3)no2)c1 [Compound 3, 3-(3-chlorophenyl)-5-((2-isopropyl-5-methylphenoxy)methyl)-1,2,4-oxadiazole]	18	20	29	30	31	39	24	35	50	24	28	38	13	17	20	27	29	48	antimicrobial activities (different microbes): excellent antimicrobial activities; melting point: 151 to 153 °C
O=C(O)c1cn(C2CC2)c2cc(N3CCNCC3)c(F)cc2c1=O [Cip., ciprofloxacin, reference compound]	29	30	42	29	30	42	30	39	60	29	30	53	43	44	53	29	30	53	
